The values below come from US9340575B2, “Agonists and antagonists of the urotensinergic system” (INSTITUT NATIONAL DE LA RECHERCHE SCIENTIFIQUE, priority 2011, dated 2016).

Where two headings read alike, the source gives them in different places. Marks after values point to notes of the source that are not given here. Bridge positions count the residues as written; N and C are the ends. Ends that are not written are not given here.

A word on the EC50: it is the concentration at which the effect is half-maximal. The low end stands for greater potency, the high end for weaker potency. A word on the IC50: it is the concentration that inhibits the measured activity by half.

The subject of assay [1] is rat thoracic aorta rings. The class given is cell-based. The settings on record: for Aortic Ring contraction pEC50: endothelium-denuded rat thoracic aorta; for Aortic Ring contraction Emax (%): percentage of contraction induced by KCl (40 mM); for Aortic Ring contraction Emax (%), maximum efficacy at 10^−5.5M: percentage of KCl (40 mM) contraction. How it is done: Binding and functional experiments were performed at least in triplicate and data, expressed as mean±S.E.M, were analyzed using the Prism software (Graph Pad Software, San Diego, Calif.). In all experiments, n represents the total number of animals studied or individual assays performed. The EC50, pEC50, pIC50 values as well as the Emax value were determined from the concentration-response curves using a sigmoidal dose-response fit with variable slope. […] The slope is calculated from the double reciprocal plot of equiactive concentrations of agonist in the presence and absence of antagonist.

Assay [2] deals with T1, human urotensin II receptor (UT) (Homo sapiens, UniProt Q9UKP6).
T1 construct: expressed in transfected cells; host or cells: CHO cells (CHO-UT), stably transfected, G418 selection
T1 sequence (Q9UKP6 1-389): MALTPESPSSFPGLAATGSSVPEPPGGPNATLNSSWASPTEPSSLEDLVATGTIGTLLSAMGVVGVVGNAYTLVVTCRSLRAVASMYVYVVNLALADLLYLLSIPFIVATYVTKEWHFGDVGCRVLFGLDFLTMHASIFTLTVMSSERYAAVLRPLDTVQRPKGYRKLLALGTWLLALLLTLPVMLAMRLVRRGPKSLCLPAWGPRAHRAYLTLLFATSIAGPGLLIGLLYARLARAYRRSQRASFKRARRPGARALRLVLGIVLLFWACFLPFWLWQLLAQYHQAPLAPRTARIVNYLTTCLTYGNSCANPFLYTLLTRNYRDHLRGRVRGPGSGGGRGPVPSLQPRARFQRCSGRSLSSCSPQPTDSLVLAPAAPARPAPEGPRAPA
As to the kind of experiment: Competitive radioligand binding on CHO-UT cells. The procedure: Transfected CHO cells expressing the human urotensin receptor (CHO-UT) were maintained in Ham-F12 medium with 10% fetal bovine serum (FBS), 2 mM L-glutamine, 100 UI/mL each of penicillin and streptomycin, and 400 μg/mL G418. […] Binding assays were following known literature procedures using CHO cells stably transfected with hGPR14. […] After 90 min of incubation at room temperature, cells were washed, lysed, and the cell-bound radioactivity was quantified using a γ-counter. […] The cells were then washed, lysed, and the radioactivity counted on a γ-counter (1470 Automatic Gamma Counter, Perkin Elmer). Binding and functional experiments were performed at least in triplicate and data, expressed as mean±S.E.M, were analyzed using the Prism software (Graph Pad Software, San Diego, Calif.). In all experiments, n represents the total number of animals studied or individual assays performed. The EC50, pEC50, pIC50 values as well as the Emax value were determined from the concentration-response curves using a sigmoidal dose-response fit with variable slope. […] The slope is calculated from the double reciprocal plot of equiactive concentrations of agonist in the presence and absence of antagonist.

Assay [3] has as its system anaesthetized rats. As to the kind of experiment: Hemodynamic assessment (arterial blood pressure) in anaesthetized rats. The class given is in vivo, rat. How it is done:
Male Sprague-Dawley rats, weighing 350-400 g, were anaesthetized by isoflurane inhalation delivered in 100% oxygen (1 l/min) from an Ohmeda Tec 4 anaesthetic vaporizer (Somatechnology, Inc., Bloomfield, Conn., USA). Anaesthesia was maintained by mask inhalation of isoflurane vaporized at concentrations of up to 3% in the induction phase, at 1.5% during acute surgical procedures and at 0.8-1.0% during experimental observations. […]. […] A period of stabilisation of 30 min was observed and the following experimental protocols were then performed and arterial blood pressure was evaluated. During isoflurane inhalation, no breathing complications or changes in blood pressure were observed. […].
In a preliminary study, individual rats received a single i.v. injection of hUII ranging from 1 to 30 nmol/kg. A dose-response curve, reflecting the effect of hUII on the change in blood pressure, was then determined.
In this set of experiments, five groups of rats were used. […] […]. Hemodynamic changes were continuously captured by the pressure probe over a period of 1 h. The maximum rise and the maximum drop in blood pressure was determined and analyzed using the PowerLab software (ADInstruments, Colorado Springs, Colo., USA).
In the control group, the rats received two doses of hUII (10 nmol/kg) with a 30 min interval between the first and second injection.

For `CC(C)[C@H](NC(=O)[C@@H]1CSSC[C@H](NC(=O)[C@H](C)N)C(=O)N[C@@H](Cc2ccccc2)C(=O)N[C@@H]2Cc3c([nH]c4ccccc34)CN(C2=O)[C@@H](CCCCN)C(=O)N[C@@H](Cc2ccc(O)cc2)C(=O)N1)C(=O)O` [Compound 13, [D-Aia^4]URP], it took 159 nM to reach a half-maximal effect in assay [1] (EC50).

For `CC(C)[C@H](NC(=O)[C@@H]1CSSC[C@H](NC(=O)[C@H](C)N)C(=O)N[C@@H](Cc2ccccc2)C(=O)N2CCc3ccccc3[C@H]2C(=O)N[C@@H](CCCCN)C(=O)N[C@@H](Cc2ccc(O)cc2)C(=O)N1)C(=O)O` [Compound 16, H-Ala-Cys-Phe-Tiq-Lys-Tyr-Cys-Val-OH], in assay [2], the “Binding affinity for UT (in words)” value was “high binding affinity”. In addition, in assay [1], the “Agonist behaviour in aortic ring contraction (in words)” value (shortened to “Agonist behaviour”) is “contractile efficacy and potency comparable to the endogenous peptides”; the EC50 turned out to be 22 nM; the “Aortic Ring contraction pEC50” value is recorded as 7.66 ± 0.11; the “Aortic Ring contraction Emax (%)” value stood at 126 ± 5%.

For `CC(C)[C@H](NC(=O)[C@@H]1CSSC[C@H](NC(=O)[C@H](C)N)C(=O)N[C@@H](Cc2ccccc2)C(=O)N2Cc3ccccc3C[C@@H]2C(=O)N[C@@H](CCCCN)C(=O)N[C@@H](Cc2ccc(O)cc2)C(=O)N1)C(=O)O` [Compound 19, [D-Tic^4]URP], in assay [1], a half-maximal effect (EC50) was put at 259 nM, the “Aortic Ring contraction pEC50” value is listed as 6.08 ± 0.04 and the “Aortic Ring contraction Emax (%)” value is on record as 128 ± 12%.

`CC(C)[C@H](NC(=O)[C@@H]1CSSC[C@H](NC(=O)[C@H](C)N)C(=O)N[C@@H](Cc2ccccc2)C(=O)N[C@@H](Cc2ccc(I)cc2)C(=O)N[C@@H](CCCCN)C(=O)N[C@@H](Cc2ccc(O)cc2)C(=O)N1)C(=O)O` [Compound 5, H-Ala-Cys-Phe-Phe(I)-Lys-Tyr-Cys-Val-OH]: in assay [2] (versus native peptide), the “Drop in binding affinity on substitution of Trp” value is 4 fold.

For the compound `CC(C)[C@H](NC(=O)[C@@H]1CSSC[C@H](NC(=O)[C@H](C)N)C(=O)N[C@@H](Cc2ccccc2)C(=O)N[C@H]2Cc3c([nH]c4ccccc34)CN(C2=O)[C@@H](CCCCN)C(=O)N[C@@H](Cc2ccc(O)cc2)C(=O)N1)C(=O)O` [Compound 12, H-Ala-Cys-Phe-Aia-Lys-Tyr-Cys-Val-OH], the “Binding affinity for UT (in words)” value in assay [2] is “low binding affinity”. In addition, in assay [1], the response was half-maximal at 181 nM (EC50), the “Aortic Ring contraction pEC50” value is reported as 6.42 ± 0.13 and the “Aortic Ring contraction Emax (%)” value was found to be 51 ± 4%.

`CC(C)[C@H](NC(=O)[C@@H]1CSSC[C@H](NC(=O)[C@H](C)N)C(=O)N[C@@H](Cc2ccccc2)C(=O)N2CCc3ccccc3[C@@H]2C(=O)N[C@@H](CCCCN)C(=O)N[C@@H](Cc2ccc(O)cc2)C(=O)N1)C(=O)O` [Compound 17, [D-Tiq^4]URP]: in assay [1], the EC50 is 21 nM, the “Aortic Ring contraction pEC50” value stood at 7.68 ± 0.17 and the “Aortic Ring contraction Emax (%)” value is given as 113 ± 7%.

In the case of `CC(C)[C@H](NC(=O)[C@@H]1CSSC[C@H](NC(=O)[C@H](C)N)C(=O)N[C@@H](Cc2ccccc2)C(=O)N[C@H](C(C)(C)C)C(=O)N[C@@H](CCCCN)C(=O)N[C@@H](Cc2ccc(O)cc2)C(=O)N1)C(=O)O` [Compound 8, [D-Tbg^4]URP], in assay [1], it took 262 nM to reach a half-maximal effect (EC50).

As for `CC(C)[C@H](NC(=O)[C@@H]1CSSC[C@H](NC(=O)[C@H](C)N)C(=O)N[C@@H](Cc2ccccc2)C(=O)N2Cc3[nH]c4ccccc4c3C[C@H]2C(=O)N[C@@H](CCCCN)C(=O)N[C@@H](Cc2ccc(O)cc2)C(=O)N1)C(=O)O` [Compound 10, H-Ala-Cys-Phe-Tpi-Lys-Tyr-Cys-Val-OH], the “Binding affinity for UT (in words)” value in assay [2] is reported as “high affinity for UT”. In addition, in assay [1], the “Agonist behaviour” value was “vasoconstriction comparable to hUII or URP with however a slightly reduced potency” and the “Aortic Ring contraction Emax (%)” value stood at 139 ± 17%.

For the compound `CC(C)[C@H](NC(=O)[C@@H]1CSSC[C@H](NC(=O)[C@H](CC(=O)O)NC(=O)[C@@H]2CCCN2C(=O)[C@@H](NC(=O)[C@@H](N)CCC(=O)O)[C@@H](C)O)C(=O)N[C@@H](Cc2ccccc2)C(=O)N[C@@H](Cc2c[nH]c3ccccc23)C(=O)N[C@@H](CCCCN)C(=O)N[C@@H](Cc2ccc(O)cc2)C(=O)N1)C(=O)O` [Compound 1, reference compound], in assay [3] (0.01 μmol/kg i.v.), the “Hemodynamic response to bolus i.v. injection” value is “biphasic hemodynamic response”, the “Time of hypotension nadir” value is reported as ~6 min and the “Time of pressor phase peak” value was ~1 min. For the same compound, the “Response to repeated injections” value in assay [3] (10 nmol/kg twice, 30 min interval) was “equivalent biphasic responses”. Also, the “Effect of prior hUII injection on hypotensive effect of URP” value in assay [3] (URP injected 30 min after hUII, 10 nmol/kg) is listed as “significantly reduced”. In addition, in assay [3] (single i.v. injection, 1 to 30 nmol/kg tested), the “Dose giving the most significant drop in blood pressure” value was 10 nmol/kg. In assay [1], the response was half-maximal at 1 nM (EC50), the “Aortic Ring contraction pEC50” value came to 9.08 ± 0.25 and the “Aortic Ring contraction Emax (%)” value was determined as 117 ± 7%. Further, in assay [1] (listed as hUII), the “Aortic Ring contraction pEC50” value worked out at 8.98±0.21 and the “Aortic Ring contraction Emax (%)” value is 124±8%.

For `CC(C)[C@H](NC(=O)[C@@H]1CSSC[C@H](NC(=O)[C@H](C)N)C(=O)N[C@@H](Cc2ccccc2)C(=O)N[C@@H](Cc2cccc3ccccc23)C(=O)N[C@@H](CCCCN)C(=O)N[C@@H](Cc2ccc(O)cc2)C(=O)N1)C(=O)O` [Compound 3, H-Ala-Cys-Phe-Nal-Lys-Tyr-Cys-Val-OH], in assay [1], the “Agonist behaviour” value is given as “almost equipotent analog”, the EC50 was determined as 54 nM, the “Aortic Ring contraction pEC50” value is listed as 7.27 ± 0.24 and the “Aortic Ring contraction Emax (%)” value was found to be 86 ± 8%.

As for `CC(C)[C@H](NC(=O)[C@@H]1CSSC[C@H](NC(=O)[C@H](C)N)C(=O)N[C@@H](Cc2ccccc2)C(=O)N[C@H](Cc2cccc3ccccc23)C(=O)N[C@@H](CCCCN)C(=O)N[C@@H](Cc2ccc(O)cc2)C(=O)N1)C(=O)O` [Compound 4, [D-1-Nal^4]URP], in assay [1], the EC50 came out at 825 nM; the “Aortic Ring contraction pEC50” value is on record as 6.08 ± 0.04; the “Aortic Ring contraction Emax (%), maximum efficacy at 10^−5.5M” value stood at 34%.

As for `CC(C)[C@H](NC(=O)[C@@H]1CSSC[C@H](NC(=O)[C@H](C)N)C(=O)N[C@@H](Cc2ccccc2)C(=O)N[C@@H](C(c2ccccc2)c2ccccc2)C(=O)N[C@@H](CCCCN)C(=O)N[C@@H](Cc2ccc(O)cc2)C(=O)N1)C(=O)O` [Compound 9, H-Ala-Cys-Phe-Dip-Lys-Tyr-Cys-Val-OH], in assay [1], the “Agonist behaviour” value is reported as “weak UT agonist”; the EC50 was > 1000 nM; the “Aortic Ring contraction pEC50” value is on record as <6; the “Aortic Ring contraction Emax (%), maximum efficacy at 10^−5.5M” value is listed as 23^d %.

Consider “[Pro^7]hUII: hUII in which the Trp residue is replaced by a Pro moiety (ETPDCFPKYCV-OH; disulfide 5-10 (inferred))”, for which, in assay [1], the “Agonist behaviour” value is given as “weak agonistic effect” and the “Aortic Ring contraction Emax (%), maximum efficacy at 10^−5.5M” value is 69%.

For `CC(C)[C@H](NC(=O)[C@@H]1CSSC(C)(C)[C@H](NC(=O)[C@H](C)N)C(=O)N[C@@H](Cc2ccccc2)C(=O)N2CCc3ccccc3[C@H]2C(=O)N[C@@H](CCCCN)C(=O)N[C@@H](Cc2ccc(O)cc2)C(=O)N1)C(=O)O` [Compound 20, H-Ala-Pen-Phe-Tiq-Lys-Tyr-Cys-Val-OH], the IC50 in assay [2] (125I-hUII 0.2 nM, CHO-UT cells, 95% confidence limits in parentheses, read-out: Binding IC50) is > 10000 nM.
